Measurements as given in PMC4664883, “Selective targeting of nuclear receptor FXR by avermectin analogues with therapeutic effects on nonalcoholic fatty liver disease” (Scientific Reports, 2015).

Assays:
[1] = test system: other nuclear receptors tested; experiment: Receptor-specific transactivation reporter assay in COS-7 cells; type: cell-based, human; settings: 10 μM avermectins, Supplementary Fig. S3
Method: 30 Receptor-specific ligand
rifampicin; CAR, 5 μM CITCO. […] Luciferase activities
independent experiments. *p<0.001 versus DMSO control.

KK-Ay mice = experiment: High-fat diet fed KK-Ay mice treated 14 days (liver histology, metabolic parameters, GTT, ITT); type: in vivo; settings: for insulin sensitivity (ITT) / glucose tolerance (GTT): KK-Ay mice treated 10 days; for insulin sensitivity (ITT): 1 U/kg insulin i.p.; for glucose tolerance (GTT): 1 g/kg glucose i.p.; for serum cholesterol level / serum triglyceride level / body weight / hepatic lipid / steatosis by H&E staining of liver sections / lipid accumulation by oil red O staining of liver sections / liver morphology (colour): KK-Ay mice; for serum cholesterol level / serum triglyceride level / body weight: 1.3 mg/kg i.p. 14 days; for body weight: versus vehicle, eprinomectin and moxidectin groups; for hepatic lipid / steatosis by H&E staining of liver sections / lipid accumulation by oil red O staining of liver sections / liver morphology (colour): high-fat diet, i.p. once daily 14 days, avermectin analogues 1.3 mg/kg, GW4064 30 mg/kg
Method: To further confirm the lipid accumulation, we performed oil red O staining of the frozen liver sections (Fig. 2c).
(§1) 10 weeks age KK-Ay mice and C57BL/6J, homozygous FXR deficient (FXR^–/–) mice were maintained under environmentally controlled conditions with free access to standard chow diet and water as described previously. Animal experiments were conducted in the barrier facility of the Laboratory Animal Center, Xiamen University, approved by the Institutional Animal Use and Care Committee of Xiamen University, China, and the methods were carried out in accordance with the approved guidelines. Mice were fed with high fat diet containing 60% fat, 20% protein and 20% carbohydrate (Research Diets, D12492, New Brunswick, USA), and the food intake were measured every second day. […] After 6 h fasting, mice were weighed and sacrificed. Livers were weighed and taken photos, and part of each liver was fixed in 4% paraformaldehyde. Liver histology characterization was analyzed by haematoxylin and eosin (H&E) staining with paraffin-embedded sections by standard procedures. Other tissues were collected and frozen in liquid nitrogen for use, and serums were collected to measure metabolite parameters.
(§2) Fresh liver tissues were embedded in optimum cutting temperature compound (OCT) and cryosectioned. The sections were fixed in 4% paraformaldehyde in PBS, and were stained with 0.3% oil red O according to standard procedures.
Mice treated with compounds for 10 days were fasted for 6 h with free access to water. For the glucose tolerance test (GTT), 1 g/kg of glucose was i.p. injected and blood glucose was measured with the Accu-Check Performa (Roche Applied Science, Mannheim, Germany) at 0, 30, 60, 90, 120,150 and 180 min. For the insulin tolerance test (ITT), 1 U/kg of recombinant human insulin (Novolin 30R; Novo Nordisk, Bagsvaerd, Denmark) was i.p. injected, and blood glucose was measured at 0, 30, 60, 120 and 150 min after insulin injection.
(§3) Serum glucose was analyzed using glucose oxidase method (Applygen, Beijing, China). Serum cholesterol and triglyceride were analyzed using Cholesterol Assay Kit and Triglyceride Assay Kit (Bioassay Systems, USA), respectively. Liver triglyceride was analyzed using Tissue triglyceride assay kit (Applygen, Beijing, China).

Wild type C57BL/6J mice = experiment: High-fat diet fed wild type mice treated with compounds; type: in vivo; settings: for serum cholesterol levels / serum glucose levels: in a FXR dependent manner (WT versus KO); for amount of lipid in liver sections (oil red O): wild type mice, high-fat diet, versus vehicle
Source text: To reaffirm that the function of avermectin analogues on lipid metabolism is by directly targeting FXR signaling, we employed wild type mice and FXR gene knockout mice, both fed with high-fat diet, to study the FXR dependency of physiological effects of these avermectin analogues. […] The expression pattern of FXR target genes SHP, BSEP, solute carrier family 51 beta subunit (OSTβ) and AKR1B7 in primary hepatocytes from wild type mice and FXR gene knockout mice further confirmed the FXR-dependent manner of avermectin analogues (Supplementary Fig. S5).
as §1, §2, §3

[2] = biological target: T1, FXR ligand binding domain (LBD) (Homo sapiens, UniProt Q96RI1); experiment: AlphaScreen cofactor binding assay; type: biochemical; settings: for coactivators recruitment by FXR (biotin-SRC1–2, biotin-SRC2–3): 0.5 μM compound, Fig. 4a
T1 construct: made in house; host or cells: E. coli BL21 (DE3)
T1 sequence (Q96RI1 262-486 limits assumed): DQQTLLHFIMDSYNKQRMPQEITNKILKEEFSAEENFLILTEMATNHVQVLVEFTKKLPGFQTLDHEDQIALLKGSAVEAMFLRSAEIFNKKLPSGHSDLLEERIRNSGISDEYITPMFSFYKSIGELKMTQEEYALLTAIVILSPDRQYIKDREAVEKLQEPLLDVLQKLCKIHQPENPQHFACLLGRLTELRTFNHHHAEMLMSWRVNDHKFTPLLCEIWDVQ
Method: The binding of the cofactor peptide motifs to FXR LBD in response to ligands was determined by AlphaScreen assays using a hexahistidine detection kit from Perkins-Elmer (USA) as described before. The FXR LBD protein was purified as described previously.

FXR A291W mutation = experiment: Reporter assay with mutated FXR; type: cell-based; settings: 1 μM, Fig. 8e
FXR H447F mutation = experiment: Reporter assay with mutated FXR; type: cell-based; settings: 1 μM, Fig. 8e
Source text: For H447F mutation, the corresponding residue of histidine with a side chain of imidazole group was replaced by the nonpolar phenylalanine with a side chain of benzene ring (Fig. 8c).

[3] = test system: genes related with lipid metabolism / FXR target genes; experiment: Real-time PCR of hepatic mRNA levels in treated KK-Ay mice; type: in vivo; settings: KK-Ay mice liver
Method: as §1
Total RNA was isolated using Tissue RNA kit (Omega Bio-Tek, GA). The first strand cDNA were obtained by TAKARA reverse transcription kit. Real-time quantitative PCR were performed on a CFX96™ Real-Time PCR Detection System (Bio-Rad) using SYBR Premix Ex TaqTM (TAKARA). Relative mRNA expression levels were normalized to actin levels.

FXR LBD = test system: T2, FXR LBD; experiment: Peptide profiling / peptide competition AlphaScreen assay; type: biochemical; settings: 16 unlabelled peptides (20 μM) competing with biotin-SRC2-3; 1 μM compound
T2 construct: made in house; host or cells: E. coli BL21 (DE3)
Source text: To determine whether there is a conformational difference of FXR with various avermectin analogues, we performed peptide-profiling experiments using a panel of 16 unlabelled peptides selected from both coactivators and corepressors to compete off the binding of the third LXXLL motif of SRC2 (SRC2–3) to FXR in response to the binding of avermectin analogues (Fig. 5).
Values are the means ± SEM of three independent experiments.

FXR = biological target: T3, FXR (Homo sapiens, UniProt Q96RI1); experiment: Cell-based reporter assay, transient transfection of COS-7 cells (EcRE reporter); settings: for transcriptional activity of FXR: 1 μM compounds, Fig. 4b, EcRE reporter
T3 sequence (Q96RI1 1-472 isoform Q96RI1-2): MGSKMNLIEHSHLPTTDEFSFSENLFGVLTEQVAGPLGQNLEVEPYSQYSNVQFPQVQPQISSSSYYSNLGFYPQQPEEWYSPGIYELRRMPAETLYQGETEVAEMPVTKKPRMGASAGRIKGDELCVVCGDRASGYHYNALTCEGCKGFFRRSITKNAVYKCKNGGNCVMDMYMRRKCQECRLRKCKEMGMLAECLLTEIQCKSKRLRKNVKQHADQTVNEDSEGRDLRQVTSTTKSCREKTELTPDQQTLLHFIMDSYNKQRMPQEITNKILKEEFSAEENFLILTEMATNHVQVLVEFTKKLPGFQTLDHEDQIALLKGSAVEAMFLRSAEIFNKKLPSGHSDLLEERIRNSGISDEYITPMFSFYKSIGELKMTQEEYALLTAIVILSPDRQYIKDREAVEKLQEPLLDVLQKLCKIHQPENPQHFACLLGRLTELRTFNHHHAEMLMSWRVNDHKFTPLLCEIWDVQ
Source text: Since ligands can regulate the transcriptional activity of nuclear receptors by binding into their ligand binding pocket, we performed cell-based reporter assay to validate the results from AlphaScreen.
COS-7 cells were cotransfected with plasmids enco ding full-length nuclear receptors and their cognate response reporters as follows: human FXR with EcRE- Luc, human LXR(α and β) with LXRE- luc; human VDR with VDRE-luc; Human RXRα with RXRE- luc; human PPARs (α, δ, and γ) with PPRE-Luc; human GR o r PR with the MMTV-Luc; hum an RARα or RARβ with βRE- Luc; human PXR and CAR with PBRE-luc. 5 h after transfection,
were normalized to renilla activity co-transfected as an internal control.

diabetic mice = settings: cited from earlier work
mice = test system: mice; set-up: method as in PMID 19072826; settings: cited from earlier work

| SMILES | impact on other nuclear receptors tested (transactivation) [1] | insulin sensitivity (ITT) (KK-Ay mice) | glucose tolerance (GTT) (KK-Ay mice) | serum cholesterol level (KK-Ay mice) | serum triglyceride level (KK-Ay mice) | body weight (KK-Ay mice) | hepatic lipid / steatosis by H&E staining of liver sections (KK-Ay mice) | lipid accumulation by oil red O staining of liver sections (KK-Ay mice) | liver morphology (colour) (KK-Ay mice) | serum cholesterol levels (Wild type C57BL/6J mice) | serum glucose levels (Wild type C57BL/6J mice) | amount of lipid in liver sections (oil red O) (Wild type C57BL/6J mice) | coactivators recruitment by FXR (biotin-SRC1–2, biotin-SRC2–3) [2] | transcriptional activity of A291W mutated FXR (FXR A291W mutation) | hepatic expression of BSEP [3] | hepatic expression of SHP [3] | hepatic level of CYP8b1 [3] | hepatic mRNA level of AKR1B7 [3] | hepatic mRNA level of SCD1 [3] | hepatic mRNA level of SREBP-1c [3] | also measured |
| --- | --- | --- | --- | --- | --- | --- | --- | --- | --- | --- | --- | --- | --- | --- | --- | --- | --- | --- | --- | --- | --- |
| CCC(C)C1OC2(C=CC1C)CC1CC(CC=C(C)C(OC3CC(OC)C(OC4CC(OC)C(O)C(C)O4)C(C)O3)C(C)C=CC=C3COC4C(O)C(C)=CC(C(=O)O1)C34O)O2 (stereo not drawn) [abamectin] | no substantial impact | significantly improved | significantly improved | significantly decreased | significantly decreased | significantly lower | nearly completely reverse the liver from hepatic steatosis | dramatically reduced the lipid accumulation | much more fresh red tissue | lowered | lowered | significantly reduced the amount of lipid | – | – | – | – | – | – | – | – | – |
| CO[C@H]1C[C@H](O[C@H]2[C@H](C)O[C@@H](O[C@@H]3/C(C)=C/C[C@@H]4C[C@@H](C[C@]5(C=C[C@H](C)[C@@H](C6CCCCC6)O5)O4)OC(=O)[C@@H]4C=C(C)[C@@H](O)[C@H]5OC/C(=C\C=C\[C@@H]3C)[C@]54O)C[C@@H]2OC)O[C@@H](C)[C@@H]1O [doramectin] | no substantial impact | significantly improved | significantly improved | significantly decreased | significantly decreased | significantly lower | nearly completely reverse the liver from hepatic steatosis | dramatically reduced the lipid accumulation | much more fresh red tissue | lowered | lowered | significantly reduced the amount of lipid | strongly promoted | abolished the transcriptional activity | induced | induced | decreased | dramatically induced | substantially decreased | substantially decreased | recruitment of nuclear receptor corepressor (NCoR)-2 by FXR ([2]; Fig. 4e): induced the recruitment; transcriptional activity of H447F mutated FXR (FXR H447F mutation): increased the FXR activity; peptide profile of ligand-bound FXR (FXR LBD): identical peptide profiles as the ivermectin; transcriptional activity of FXR (FXR): selectively activated; ligand character for FXR (FXR; concluded from AlphaScreen and reporter assays): partial agonists |
| CO/N=C1\C[C@]2(C[C@@H]3C[C@@H](C/C=C(\C)C[C@@H](C)/C=C/C=C4\CO[C@@H]5[C@H](O)C(C)=C[C@@H](C(=O)O3)[C@]45O)O2)O[C@H](/C(C)=C/C(C)C)[C@H]1C [moxidectin] | – | – | – | did not | did not | – | – | – | grease white | – | – | – | failed to induce | – | did not display these regulations | did not display these regulations | did not display these regulations | did not display these regulations | did not display these regulations | did not display these regulations | transcriptional activity of FXR (FXR): failed to activate |
| CCC(C)C1OC2(CCC1C)CC1CC(CC=C(C)C(OC3CC(OC)C(OC4CC(OC)C(O)C(C)O4)C(C)O3)C(C)C=CC=C3COC4C(O)C(C)=CC(C(=O)O1)C34O)O2 (stereo not drawn) [ivermectin] | – | – | – | significantly decreased | significantly decreased | significantly lower | nearly completely reverse the liver from hepatic steatosis | dramatically reduced the lipid accumulation | much more fresh red tissue | – | – | significantly reduced the amount of lipid | strongly promoted | abolished the transcriptional activity | induced | induced | decreased | dramatically induced | substantially decreased | substantially decreased | serum cholesterol level (diabetic mice): decreased; serum glucose level (diabetic mice): decreased |
| C[C@H](CCC(=O)O)[C@H]1CC[C@H]2[C@@H]3[C@H](O)C[C@@H]4C[C@H](O)CC[C@]4(C)[C@H]3CC[C@]12C [CDCA, chenodeoxycholic acid] | – | – | – | – | – | – | – | – | – | – | – | – | – | – | – | – | – | – | – | – | liver effect of CDCA-rich diet (mice): induce liver hypertrophy |
